Laboratory results from patent publication US20050142169A1, “Palatability enhanced composition and method for animal consumption” (priority 2003, published 2005).

Columns and labels:
dogs [1] = assay: two-bowl preference test, Example 3 (Canine w/d, 3.5% test flavor); type: in vivo, dog; settings: dry wt. of kibble, test flavor 3.5%
Experimental: Each of the test flavors (3.5%, dry weight basis) was topically applied to a dry, commercial dog food (Canine w/d from Hill's Pet Nutrition, Inc.) after topical application of a commercial dry palatant enhancer in choice white grease (0.6%, dry weight basis) to form a test composition. Each test composition was compared against a control composition in a palatability test as described in Example 1. The control compositions were prepared by topically applying the commercial liquid palatant enhancer (3.5% dry weight basis) to the dry, commercial dog food (Canine w/d) after application of a commercial dry palatant enhancer in choice white grease (0.6%, dry weight basis). Palatability was determined by comparing the test composition and the control composition in a standard two-bowl preference test over two days with 20 dogs as described in Example 1.

dogs [2] = assay: two-bowl preference test, Example 4 (Canine w/d, 2.4% test flavor); type: in vivo, dog; settings: dry wt. of kibble, test flavor 2.4%
Experimental: The experiment comprised mixing various amounts of 2,5-dimethyl-4-hydroxy-3(2H)-furanone with a commercial liquid palatant enhancer as a carrier to form a test flavor. Each of the test flavors (2.4%, dry weight basis) was topically applied to a dry, commercial dog food (Canine w/d from Hill's Pet Nutrition, Inc.) after application of a commercial dry palatant enhancer in choice white grease (0.6%, dry weight basis) to form a test composition. […] The control compositions were prepared by topically applying the commercial liquid palatant enhancer (2.4% dry weight basis) to the dry, commercial dog food (Canine w/d) after application of a commercial dry palatant enhancer in choice white grease (0.6%, dry weight basis). Palatability was determined by comparing the test composition and the control composition in a standard two-bowl preference test over two days with 20 dogs as described in Example 1.

[3] = Exp. No. 6, second set of experiments, 87.1 ppm
[4] = Exp. No. 7, second set of experiments, 130.5 ppm
[5] = Exp. No. 8, second set of experiments, 174.0 ppm
[6] = Exp. No. 9, second set of experiments, 217.5 ppm
[7] = Exp. No. 10, second set of experiments, 282.8 ppm

SMILES: CC1=C(O)C(=O)C(C)O1 (centres unmarked) [2,5-dimethyl-4-hydroxy-3(2H)-furanone]
- Intake Ratio (dogs [1]; Exp. No. 1, 87.1 ppm): 0.7301
- Preference (%) control composition (dogs [1]; Exp. No. 1, 87.1 ppm): 16.7%
- Preference (%) test composition (dogs [1]; Exp. No. 1, 87.1 ppm): 83.3%
- Status (vs. control) (dogs [1]; Exp. No. 1, 87.1 ppm): Win
- Intake Ratio (dogs [1]; Exp. No. 2, 130.5 ppm): 0.7323
- Preference (%) control composition (dogs [1]; Exp. No. 2, 130.5 ppm): 8.0%
- Preference (%) test composition (dogs [1]; Exp. No. 2, 130.5 ppm): 88.0%
- Status (vs. control) (dogs [1]; Exp. No. 2, 130.5 ppm): Win
- Intake Ratio (dogs [1]; Exp. No. 3, 174.0 ppm): 0.6669
- Preference (%) control composition (dogs [1]; Exp. No. 3, 174.0 ppm): 24.0%
- Preference (%) test composition (dogs [1]; Exp. No. 3, 174.0 ppm): 76.0%
- Status (vs. control) (dogs [1]; Exp. No. 3, 174.0 ppm): Win
- Intake Ratio (dogs [1]; Exp. No. 4, 217.5 ppm): 0.5713
- Preference (%) control composition (dogs [1]; Exp. No. 4, 217.5 ppm): 40.0%
- Preference (%) test composition (dogs [1]; Exp. No. 4, 217.5 ppm): 60.0%
- Status (vs. control) (dogs [1]; Exp. No. 4, 217.5 ppm): Parity
- Intake Ratio (dogs [2]; Exp. No. 1, 87.1 ppm): 0.6939
- Preference (%) control composition (dogs [2]; Exp. No. 1, 87.1 ppm): 16.0%
- Preference (%) test composition (dogs [2]; Exp. No. 1, 87.1 ppm): 76.0%
- Status (vs. control) (dogs [2]; Exp. No. 1, 87.1 ppm): Win
- Intake Ratio (dogs [2]; Exp. No. 2, 130.5 ppm): 0.6616
- Preference (%) control composition (dogs [2]; Exp. No. 2, 130.5 ppm): 28.0%
- Preference (%) test composition (dogs [2]; Exp. No. 2, 130.5 ppm): 72.0%
- Status (vs. control) (dogs [2]; Exp. No. 2, 130.5 ppm): Win
- Intake Ratio (dogs [2]; Exp. No. 3, 174.0 ppm): 0.6947
- Preference (%) control composition (dogs [2]; Exp. No. 3, 174.0 ppm): 24.0%
- Preference (%) test composition (dogs [2]; Exp. No. 3, 174.0 ppm): 76.0%
- Status (vs. control) (dogs [2]; Exp. No. 3, 174.0 ppm): Win
- Intake Ratio (dogs [2]; Exp. No. 4, 217.5 ppm): 0.7773
- Preference (%) control composition (dogs [2]; Exp. No. 4, 217.5 ppm): 8.0%
- Preference (%) test composition (dogs [2]; Exp. No. 4, 217.5 ppm): 92.0%
- Status (vs. control) (dogs [2]; Exp. No. 4, 217.5 ppm): Win
- Intake Ratio (dogs [2]; Exp. No. 5, 282.8 ppm): 0.8079
- Preference (%) control composition (dogs [2]; Exp. No. 5, 282.8 ppm): 8.3%
- Preference (%) test composition (dogs [2]; Exp. No. 5, 282.8 ppm): 87.5%
- Status (vs. control) (dogs [2]; Exp. No. 5, 282.8 ppm): Win
- Intake Ratio (dogs [2]; [3]): 0.6058
- Preference (%) control composition (dogs [2]; [3]): 40.0%
- Preference (%) test composition (dogs [2]; [3]): 60.0%
- Status (vs. control) (dogs [2]; [3]): Win
- Intake Ratio (dogs [2]; [4]): 0.6857
- Preference (%) control composition (dogs [2]; [4]): 24.0%
- Preference (%) test composition (dogs [2]; [4]): 76.0%
- Status (vs. control) (dogs [2]; [4]): Win
- Intake Ratio (dogs [2]; [5]): 0.5568
- Preference (%) control composition (dogs [2]; [5]): 40.0%
- Preference (%) test composition (dogs [2]; [5]): 56.0%
- Status (vs. control) (dogs [2]; [5]): Parity
- Intake Ratio (dogs [2]; [6]): 0.5453
- Preference (%) control composition (dogs [2]; [6]): 40.0%
- Preference (%) test composition (dogs [2]; [6]): 60.0%
- Status (vs. control) (dogs [2]; [6]): Parity
- Intake Ratio (dogs [2]; [7]): 0.7429
- Preference (%) control composition (dogs [2]; [7]): 16.0%
- Preference (%) test composition (dogs [2]; [7]): 84.0%
- Status (vs. control) (dogs [2]; [7]): Win
